Source: patent US20080045514A1 (Cytovia, Inc., priority 2006, published 2008)
Where a name gives a salt, the structure may show the parent alone.

Experiments:
Assay type in all cases: cell-based
[1] = system: human lymphoma cell line Raji; assay: Inhibition of cell proliferation (GI50), Raji; conditions: Homo sapiens; Raji cells, 48 h, CellTiter-Glo
Method: (§1) Human breast cancer cell lines T-47D, human hepatocellular carcinoma cell line SNU398, human colon carcinoma cell line HCT116, human lung cancer cell line H1299, human leukemia cell line K562, human lymphoma cell line Raji, human B cell lymphoblastoid cell line Ramos, and human Burkitt's lymphoma cell line Namalwa were grown and harvested as in Example 100. An aliquot of […] of cells (4.4×10^4 cells/mL) was added to a well of a 96-well microtiter plate containing 5 μL of a 10% DMSO in RPMI-1640 media solution containing 10 nM to 100 μM of 3-(2-chlorophenyl)-6-(3,4-methylenedioxyphenyl)-7H-[1,2,4]triazolo[3,4-b][1,3,4]thiadiazine (1 nM to 10 μM final). An aliquot of 45 μL of cells was added to a well of a 96-well microtiter plate containing 5 μL of a 10% DMSO in RPMI-1640 media solution without compound as the control sample for maximal cell proliferation (LMax). The samples were mixed by agitation and then incubated at 37° C. for 48 h in a 5% CO2-95% humidity incubator. After incubation, the samples were removed from the incubator and 25 μL of CellTiter-Glo™ reagent (Promega) was added. The samples were mixed by agitation and incubated at room temperature for 10-15 min. Plates were then read using a luminescent plate reader (Model SPECTRAfluor Plus, Tecan) to give Ltest values.
(§2) The samples were mixed by agitation and then incubated at 37° C. for 0.5 h in a 5% CO2-95% humidity incubator. After incubation, the samples were removed from the incubator and 25 μL of CellTiter-Glo™ reagent (Promega) was added. The samples were mixed by agitation and incubated at […] 10-15 min at room temperature in a 5% CO2-95% humidity incubator. Fluorescence was read as above, (LStart) defining luminescence for initial cell number used as baseline in GI50 determinations.
(§3) Calculation: GI50 (dose for 50% inhibition of cell proliferation) is the concentration where [(Ltest−LStart)/(LMax−LStart)]=0.5.

[2] = system: human colon carcinoma cell line HCT116; assay: Inhibition of cell proliferation (GI50), HCT116; conditions: Homo sapiens; HCT 116 cells, 48 h, CellTiter-Glo
Method: as §1, §2, §3

[3] = system: human hepatocellular carcinoma cell line SNU398; assay: Caspase cascade activation (EC50), SNU398; conditions: Homo sapiens, SNU-398; SNU398 cells; caspase cascade activation; read-out: caspase potency (EC50) SNU398
Method in brief: (§4)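 Cells in ATCC medium plus 10% FCS, seeded at 0.65×10^6 cells/mL, incubated with compound at 0.016 to 10 μM final, 48 h, 37 °C. Lysis-substrate buffer (14 μM DEVD-R110, 20 mM DTT, pH 7.2, lysolecithin) added; fluorescence read after 3 h at room temperature.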

[4] = system: human breast cancer cell line T-47D; assay: Caspase cascade activation (EC50), T-47D; conditions: Homo sapiens; T47D cells; caspase cascade activation; read-out: caspase potency (EC50) T47D
Method in brief: as §4

[5] = system: human B cell lymphoblastoid cell line Ramos; assay: Caspase cascade activation (EC50), Ramos; conditions: Homo sapiens, RAMOS cells, read-out: caspase potency (EC50) RAMOS
Method in brief: as §4

[6] = system: human colon carcinoma cell line HCT116; assay: Caspase cascade activation (EC50), HCT116; conditions: Homo sapiens, HCT-116; HCT116 cells; caspase cascade activation; read-out: caspase potency (EC50) HCT116
Method in brief: as §4

[7] = system: human leukemia cell line K562; assay: Inhibition of cell proliferation (GI50), K562; conditions: Homo sapiens; K562 cells, 48 h, CellTiter-Glo
Method: as §1, §2, §3

[8] = system: human B cell lymphoblastoid cell line Ramos; assay: Inhibition of cell proliferation (GI50), Ramos; conditions: Homo sapiens; Ramos cells, 48 h, CellTiter-Glo
Method: as §1, §2, §3

[9] = system: human lymphoma cell line Raji; assay: Caspase cascade activation (EC50), Raji; conditions: Homo sapiens, RAJI cells, read-out: caspase potency (EC50) RAJI
Method in brief: as §4

[10] = system: human Burkitt's lymphoma cell line Namalwa; assay: Inhibition of cell proliferation (GI50), Namalwa; conditions: Homo sapiens, Burkitts lymphoma cell; Namalwa cells, 48 h, CellTiter-Glo
Method: as §1, §2, §3

[11] = system: human Burkitt's lymphoma cell line Namalwa; assay: Caspase cascade activation (EC50), Namalwa; conditions: Homo sapiens, Burkitts lymphoma cell; Namalwa cells; caspase cascade activation; read-out: caspase potency (EC50) Namalwa
Method in brief: as §4

[12] = system: human cancer cell line H1299; assay: Caspase cascade activation (EC50), H1299; conditions: NCI-H1299, H1299 cells, read-out: caspase potency (EC50) H1299
Method: Human breast cancer cell lines T-47D, human hepatocellular carcinoma cell line SNU398, human colon carcinoma cell line HCT116, human cancer cell line H1299, human Burkitt's lymphoma cell line Namalwa, human lymphoma cell line Raji, and human B cell lymphoblastoid cell line Ramos were grown according to media component mixtures designated by American Type Culture Collection+10% FCS (Invitrogen Corporation), in a 5% CO2-95% humidity incubator at 37° C. T-47D and H1299 cells were maintained at a cell density between 50 and 80% confluency at a cell density of 0.1 to 0.6×10^6 cells/mL. Cells were harvested at 600×g and resuspended at 0.65×10^6 cells/mL into appropriate media+10% FCS. An aliquot of 22.5 μL of cells was added to a well of a 384-well microtiter plate containing 2.5 μL of a 10% DMSO in RPMI-1640 media solution containing 0.16 to 100 μM of 3-(2-chlorophenyl)-6-(3,4-methylenedioxyphenyl)-7H-[1,2,4]triazolo[3,4-b][1,3,4]thiadiazine or other test compound (0.016 to 10 μM final). An aliquot of 22.5 μL of cells was added to a well of a 384-well microtiter plate containing 2.5 μL of a 10% DMSO in RPMI-1640 media solution without test compound as the control sample. The samples were mixed by agitation and then incubated at 37° C. for 48 h in a 5% CO2-95% humidity incubator. After incubation, the samples were removed from the incubator and 25 μL of a solution containing 14 μM of N—(Ac-DEVD)-N′-ethoxycarbonyl-R110 (SEQ ID No.:1) fluorogenic substrate (Cytovia, Inc.; WO99/18856), 20% sucrose (Sigma), 20 mM DTT (Sigma), 200 mM NaCl (Sigma), 40 mM Na PIPES buffer pH 7.2 (Sigma), and 500 μg/mL lysolecithin (Calbiochem) was added. The samples were mixed by agitation and incubated at room temperature. Using a fluorescent plate reader (Model SPECTRAfluor Plus, Tecan), an initial reading (T=0) was made approximately 1-2 min after addition of the substrate solution, employing excitation at 485 nm and emission at 530 nm, to determine the background fluorescence of the control sample. After the 3 h incubation, the samples were read for fluorescence as above (T=3 h). Calculation: The Relative Fluorescence Unit values (RFU) were used to calculate the sample readings as follows: RFU(T=3H)−Control RFU(T=0)=Net RFU(T=3h) The activity of caspase cascade activation was determined by the ratio of the net RFU value for 3-(2-chlorophenyl)-6-(3,4-methylenedioxyphenyl)-7H-[1,2,4]triazolo[3,4-b][1,3,4]thiadiazine (Example P) or other test compound to that of control samples. The EC50 (nM) was determined by a sigmoidal dose-response calculation (Prism 3.0, GraphPad Software Inc.).

Compound | GI50 [1] | GI50 [2] | EC50 [3] | EC50 [4] | EC50 [5] | EC50 [6] | GI50 [7] | GI50 [8] | EC50 [9] | GI50 [10] | EC50 [11] | EC50 [12]
COc1ccc(C2=Nn3c(nnc3-c3ccc(Br)cc3)SC2)cc1 [Example E3] | 66 nM | 200 nM | 85 nM | 244 nM | 77 nM | 157 nM | 33 nM | 21 nM | 125 nM | 47 nM | 48 nM | –
COc1cc(OC)cc(-c2nnc3n2N=C(c2ccc(C)cc2)CS3)c1 [Example 12, 3-(3,5-Dimethoxyphenyl)-6-(4-methylphenyl)-7H-[1,2,4]triazolo[3,4-b][1,3,4]thiadiazine hydrochloride] | 15 nM | 50 nM | 61 nM | 760 nM | 20 nM | 71 nM | 7 nM | 5 nM | 55 nM | 6 nM | 20 nM | –
COc1ccccc1-c1nnc2n1N=C(c1ccc(N3CCOCC3)cc1)CS2 [Example 25, 3-(2-Methoxyphenyl)-6-(4-morpholinophenyl)-7H-[1,2,4]triazolo[3,4-b][1,3,4]thiadiazine] | 285 nM | 1980 nM | 694 nM | 612 nM | 275 nM | 1260 nM | 317 nM | 105 nM | 511 nM | 161 nM | 321 nM | –
CCOc1ccc(C2=Nn3c(nnc3-c3ccc(C)cc3)SC2)cc1 [B, 3-(4-Methylphenyl)-6-(4-ethoxyphenyl)-7H-[1,2,4]triazolo[3,4-b][1,3,4]thiadiazine] | 133 nM | 396 nM | 266 nM | 2710 nM | 331 nM | 431 nM | 267 nM | 108 nM | 455 nM | 254 nM | 270 nM | 1250 nM
COc1ccc(C2=Nn3c(nnc3-c3cccc(Cl)c3)SC2)cc1 [R, 3-(3-Chlorophenyl)-6-(4-methoxyphenyl)-7H-[1,2,4]triazolo[3,4-b][1,3,4]thiadiazine] | 89 nM | 121 nM | 115 nM | 557 nM | 77 nM | 242 nM | 42 nM | 17 nM | 109 nM | 117 nM | 122 nM | 553 nM
